From patent US20240041813A1, “VERY-LONG-CHAIN POLYUNSATURATED FATTY ACIDS, ELOVANOID HYDROXYLATED DERIVATIVES, AND METHODS OF USE” (priority 2020, published 2024)
Entries after “also recorded” stand apart in the source; their conditions may differ.

Key:
ACE2 [1] = assay: Rat cornea alkali burn: ACE2 abundance by Jess capillary-based Western Blot; format: in vivo; conditions: rat cornea after alkali burn; eye drops 20 μl/eye, 3 times/day for 14 days; day 14
Excerpt: Sprague-Dawley rats (8-week-old male) were obtained from Charles River Laboratories (Wilmington, MA, USA) and kept at the Animal Care of the Neuroscience Center of Excellence, Louisiana State University Health (LSUH; New Orleans, LA, USA). All animals were handled in compliance with the guidelines of the ARVO Statement for the Use of Animals in Ophthalmic and Vision Research, and the experimental protocol was approved by the Institutional Animal Care and Use Committee (IACUC) at LSUH.
The rats were anesthetized by intraperitoneal injection of Ketamine (50-100 mg/kg) plus xylazine (5-10 mg/kg). A 4 mm diameter filter paper soaked in 1 N NaOH was placed on the central cornea of the right eye for 45 seconds, and then the eye was thoroughly washed with […] of saline. After injury, the rats were randomly divided into five treatment groups: vehicle; lipoxin A4 (LXA4) from Cayman Chemical (Ann Arbor, MI, USA); R,R Resolvin D6 isomer (RvD6i), R,R neuroprotection D (NPD1), and elovanoid (ELV)-N32. All lipid solutions were prepared at the final concentration of […] using PBS with the minimal contamination of ethanol by evaporating the ethanol and immediately dissolve the lipids in PBS, then vortex well for 2 min. Topical administration (20 μl) was done 3×/day for 14 days. The experiments were double-blinded with the lipid mediators coded during the whole experiments. At the end of the study, when all data was collected, the code was opened.
Briefly, samples were lysed with RIPA buffer containing a protease inhibitor cocktail (Sigma, Cat. P8340). Cell debris was removed after 10 min centrifugation at 16,000×g. Protein concentration was determined by BCA assay (Thermo Fisher Scientific, Cat. 23225) and 1 μg used/reaction. Fluorescent Master Mix was mixed with 40 mM DTT, and the mixture was added to each sample to provide a denaturing and reducing environment. Samples were heated at 95° C./5 min, and 3 μL of each sample were loaded. The 12-230 kDa cartridge (Protein Simple—#SM-W004) was used. Primary antibodies were diluted in antibody diluent 2 buffer (Protein Simple, #042-203) while the working solution of secondary antibodies was provided by the company (Protein Simple, #042-206). Then, the filled plate was spin-down for 10 min at 1,000×g to remove bubbles and plate, and capillaries were loaded into the Jess machine. For data analysis, the area of spectra that matched the molecular weight of the target protein was used. To reduce the coefficient variant, we analyzed the GAPDH for each capillary. The ratio of the targeted protein to GAPDH was used for statistical comparisons. For visualization, the artificial lanes generated from spectra volume was used.

ACE2 [2] = assay: HCEC challenged with IFNγ: Ace2 gene expression; format: cell-based, human; conditions: IFNγ 100 ng/ml
Excerpt: (§1) All experiments with human corneal epithelial cells were approved by the Institutional Review Board of LSUHNO and conducted in accordance with NIH guidelines. HCEC were kept frozen in the laboratory at passage 2544. Cells were maintained in keratinocyte growth (KGM) medium containing the keratinocyte basal medium (KBM) (Lonza: CC-3101) supplemented with bovine pituitary extract (BPE), hEGF, Insulin, Hydrocortisone and Gentamicin Sulfate-Amphotericin (GA-1000) (Lonza, Cat. CC-4131). For all experiments, cells were seeded at 30,000 cells/cm2.
(§2) For screening the stimulation of receptor ACE2 by cytokines, the HCEC were cultured with KGM until 50-60% confluence. Then, changed to KBM containing IL-1β, -2, -6 and 8, IFN-α, -ε, and -γ or TNFα at 1, 10 or 100 ng/ml. The cells were harvested after 6 hours and analyze for the gene expression of Ace2. In other experiments, HCEC were stimulated with IFNγ, and thereafter, lipid mediators were added. For the Alexa 594-conjugated RBD binding, IFNγ was used as a cytokine trigger. At 12 hours after cytokine exposure and lipid mediator treatments, […] of labeled RBD was added to the medium. The evaluation of RBD binding was conducted 24 hours after.
Quantitative PCR was performed with the Biomark HD system (Fluidigm, San Francisco, CA, USA). […]

Cdkn2a (p16INK4a) = assay: HCEC challenged with IFNγ: Cdkn2a gene expression; format: cell-based, human; conditions: IFNγ 100 ng/ml
Excerpt: as §1, §2
Quantitative PCR was performed with the Biomark HD system (Fluidigm, San Francisco, CA, USA). Briefly, 200 ng of RNA was reverse-transcribed using iScript Reverse Transcription Supermix (Bio-Rad), and the cDNA was pre-amplified using the PreAmp Master Mix (PN 100-5580; Fluidigm). The cDNA was then subjected to Exonuclease I treatment and diluted 5 times in TE Buffer. The qPCR reaction mixture and primer reaction mixture were made and loaded into the Biomark 96.96 IFC™ (Integrated Fluidic Circuit). The enzyme reaction was mixed using Juno™ Controller (Fluidigm) and run using the cycling program of (i) 70° C. for 40 minutes followed by 60° C. for 30 seconds, (ii) hot start for 1 minute at 95° C., (iii) 30 cycles of denaturation at 96° C. for 5 seconds, and annealing at 60° C. for 20 seconds, and (iv) melting curves between 60° C. and 95° C. with 1° C. increments/3 seconds. The Ct value of target genes was normalized to the house-keeping genes Gapdh, Hprt1, and Tfrc before normalized to the vehicle group. Relative fold changes from the ΔΔCT calculation was used to make the graph.

Alexa 594-RBD = assay: HCEC challenged with IFNγ: Alexa 594-RBD binding (unbiased imaging, Imaris); format: cell-based, human; conditions: IFNγ 100 ng/ml and lipid mediators 200 nM for 12 h, images 24 h after RBD
Description: as §2
Twenty-four hours after Alexa 594-RBD was added to the HCEC, the cells were washed with PBS (3×/5 min) and fixed with 4% paraformaldehyde for 30 minutes at RT. The HCEC were washed 2× with PBS and stained with Hoechst 33342 Solution (ThermoFisher Scientific, Cat. 62249) for 30 minutes at RT. Next, the HCEC were washed 2× with PBS before imaging. For unbiased data collection, 7 designated areas were defined in each well (FIG. 63) and captured with an Olympus FV3000 confocal laser scanning microscopy under “Multi Area Time Lapse” (MATL) mode. All images were acquired with the same parameters and Z-section range, converted and inputted in the Imaris software version 9.5.1. The threshold for the control images was defined by the HCEC without Alexa 594-conjugated RBD of S protein and using it as a threshold filter for the Imaris batch image processing function. The sum of total intensity for each image was used to evaluate the binding efficiency.

[3] = system: human corneal epithelial cells (HCEC); assay: HCEC challenged with IFNγ: SASP secretome (β-Gal staining); format: cell-based; conditions: HCEC 24 h after IFN-γ challenge

Compound: CC/C=C\CC(O)\C=C/C=C/C=C/C(O)C/C=C\C/C=C\CCCCCCCCCCCCC(=O)O [ELV-N32, (14Z,17Z,20R,21E,23E,25Z,27S,29Z)-20,27-dihydroxydo-triaconta-14,17,21,23,25,29-hexaenoic acid]
- ACE2 abundance (protein, normalized to GAPDH) (ACE2 [1]): decrease
- IFNγ-triggered Ace2 activation (ACE2 [2]): markedly attenuated; also recorded: suppressed
- Cdkn2a activation (Cdkn2a (p16INK4a)): decrease
- IFNγ-stimulated Alexa 594-RBD binding (Alexa 594-RBD): decrease; also recorded: attenuated
- senescence programming genes and SASP secretome activation (β-Gal) [3]: blocked; also recorded: suppressed
